Marks after values point to notes of the source that are not given here.

The first data set can be described thus: logP determination via retention times, calibrated with unbranched alkan-2-ones. It is filed as physicochemical. The conditions noted are these: HPLC on reversed-phase C 18, EEC Directive 79/831 Annex V.A8; method *: 40° C., 0.1% aqueous formic acid and acetonitrile, linear gradient 10% to 95% acetonitrile.
Consider `O=CNc1ccc(Nc2ncc(Cl)c(NCC3CC3)n2)cc1` [compound 544], for which the logP is 1.17*.

Turning to `Fc1ccc(Nc2ncc(Br)c(NC3CC3)n2)cc1` [compound 499], the logP was 1.96*.

As for `COC(=O)Cc1cccc(Nc2ncc(Cl)c(NCC3CC3)n2)c1` [compound 504], the logP is 1.92*.

For the compound `Brc1ccc(Nc2ncc(Br)c(NCC3CC3)n2)cc1` [compound 472], the logP was 2.84*.

On to `O=C1CCCN1c1cc(Nc2ncc(Cl)c(NC3CC3)n2)ccc1F` [compound 536], for which the logP was 1.53*.

Staying with this data set, now noted: HPLC on reversed-phase C 18, method **: 43° C.; 0.1% aqueous phosphoric acid and acetonitrile; linear gradient 10% to 95% acetonitrile.
For `CN(CC1CC1)c1nc(Nc2ccccc2)ncc1Cl` [compound 963], the logP is reported as 2.72**.

The data set is the same for the next values; noted with them: HPLC on reversed-phase C18, method **: 43° C.; mobile phase 0.1% aqueous phosphoric acid and acetonitrile; linear gradient 10% to 95% acetonitrile.
With `Cc1cc(Nc2ncc(Cl)c(NC3CC3)n2)c(C)cc1N` [compound 313], the logP is 0.87**.

Turning to `CC(C)NS(=O)(=O)Cc1ccc(Nc2ncc(Cl)c(NC3CC3)n2)cc1` [compound 324], the logP is listed as 1.75**.

The data set is the same for the next values; noted with them: HPLC on reversed-phase C18, method *: 40° C., 0.1% aqueous formic acid and acetonitrile, linear gradient 10% to 95% acetonitrile.
Regarding `N#CCC(=O)c1ccc(Nc2ncc(Br)c(NC3CC3)n2)cc1` [compound 759], the logP was 2.16*.

As for `CCC(C)Oc1cc(Nc2ncc(Cl)c(NC3CC3)n2)ccc1C` (racemic) [compound 955], the logP is listed as 2.99*.

As for `FC(F)(F)c1ccc(Nc2ncc(Br)c(NC3CC3)n2)cc1` [compound 740], the logP is 3.33*.

On to `FC(F)C(F)(F)Oc1ccc(Nc2ncc(Cl)c(NC3CC3)n2)cc1` [compound 108], for which the logP was 2.65*.

As to `Clc1cnc(Nc2ccc(C3CCCCC3)cc2)nc1NC1CC1` [compound 952], the logP is listed as 3.29*.

In the case of `CSc1ccccc1Nc1ncc(Cl)c(NC2CC2)n1` [compound 880], the logP was 2.18*.

Turning to `CSc1cccc(Nc2ncc(Br)c(NC3CC3)n2)c1` [compound 121], the logP is recorded as 2.44*.

For `O=C(c1ccc(Nc2ncc(C(F)(F)F)c(NC3CC3)n2)cc1)N1CCCCC1` [compound 725], the logP is listed as 2.86*.

For the compound `CCC(=O)Nc1ccc(Nc2ncc(C(F)(F)F)c(NC3CC3)n2)cc1` [compound 710], the logP was 1.93*.

Turning to `Clc1ccc(Nc2ncc(Cl)c(NC3CC3)n2)cc1Br` [compound 942], the logP was 3.55*.

As to `FC(F)(F)Oc1ccccc1Nc1ncc(Cl)c(NC2CC2)n1` [compound 883], the logP is given as 3.07*.

Consider `N#Cc1cnc(Nc2ccc(N3CCCC3=O)cc2)nc1NC1CC1` [compound 157], for which the logP is on record as 1.89*.

On to `CC(C)(C)Sc1ccc(Nc2ncc(Cl)c(NC3CC3)n2)cc1` [compound 152], for which the logP is 3.73*.

Consider `FC(F)C(F)(F)Oc1ccccc1Nc1ncc(Cl)c(NC2CC2)n1` [compound 896], for which the logP is given as 3.14*.

For the compound `CC(C)C(=O)Nc1ccc(Nc2ncc(Cl)c(NC3CC3)n2)cc1` [compound 111], the logP is on record as 1.43*.

The data set is the same for the next values; noted with them: HPLC on reversed-phase C18, method *: 40° C.; mobile phase 0.1% aqueous formic acid and acetonitrile; linear gradient 10% to 95% acetonitrile.
With `CC(=O)N(C)c1ccc(Nc2ncc(Br)c(NC3CC3)n2)cc1` [compound 349], the logP is 1.54*.

As for `CS(=O)(=O)c1ccc(Nc2ncc(Br)c(NC3CC3)n2)cc1` [compound 345], the logP is reported as 1.9*.

For `CSc1ccc(Nc2ncc(Br)c(NC3CC3)n2)cc1` [compound 353], the logP is reported as 2.18*.

As to `Clc1cc(Cl)cc(Nc2ncc(Cl)c(NC3CC3)n2)c1` [compound 291], the logP was 4.04*.

Still in this data set, the particulars now being: HPLC on reversed-phase C18 column (EEC Directive 79/831 Annex V.A8); method *: 40° C.; 0.1% aqueous formic acid and acetonitrile; linear gradient 10% to 95% acetonitrile.
In the case of `CCOc1ccc(Nc2ncc(Cl)c(NC3CC3)n2)cc1` [compound 183], the logP is recorded as 1.76*.

For `O=S(=O)(Cc1cccc(Nc2ncc(Cl)c(NC3CC3)n2)c1)N1CCOCC1` [compound 261], the logP is 1.62*.

`CC1COC(=O)N1c1cccc(Nc2ncc(Cl)c(NC3CC3)n2)c1` (centres unmarked) [compound 267]: the logP is on record as 1.57*.

On to `CN(C)S(=O)(=O)Oc1cccc(Nc2ncc(Cl)c(NC3CC3)n2)c1` [compound 244], for which the logP is recorded as 2.26*.

Consider `Oc1ccc(Nc2ncc(Cl)c(NC3CC3)n2)cc1C1CCCC1` [compound 187], for which the logP is 1.86*.

Turning to `Clc1cnc(Nc2cccc(-c3cccs3)c2)nc1NC1CC1` [compound 197], the logP is listed as 2.9*.

Regarding `COC(=O)c1cccc(Nc2ncc(Cl)c(NC3CC3)n2)c1` [compound 196], the logP is reported as 1.9*.

The same data set, now with this note: HPLC reversed-phase C 18, EEC Directive 79/831 Annex V.A8; method *: 40° C., 0.1% aqueous formic acid and acetonitrile, linear gradient 10% to 95% acetonitrile.
With `COc1cc(CC#N)ccc1Nc1ncc(Br)c(NC2CC2)n1` [compound 818], the logP is given as 1.99*.

`O=C(c1cccc(Nc2ncc(Cl)c(NC3CC3)n2)c1)N1CCCC1` [compound 848]: the logP is 1.57*.

As to `N#CCc1cccc(Nc2ncc(Br)c(NC3CC3)n2)c1` [compound 794], the logP was 1.75*.

For the compound `COC(C)c1cccc(Nc2ncc(Cl)c(NC3CC3)n2)c1` (centres unmarked) [compound 806], the logP is 1.96*.

For the compound `O=C1OCCN1c1cccc(Nc2ncc(Br)c(NCC3CC3)n2)c1` [compound 862], the logP is 1.68*.

`O=C1CCCCN1c1cccc(Nc2ncc(C(F)(F)F)c(NC3CC3)n2)c1` [compound 803]: the logP is reported as 2.18*.

`O=C(O)c1cccc(Nc2ncc(Cl)c(NC3CC3)n2)c1` [compound 785]: the logP is 1.32*.

The data set is the same for the next values; noted with them: method **: HPLC reversed-phase C 18, 43° C., 0.1% aqueous phosphoric acid and acetonitrile, linear gradient 10% to 95% acetonitrile.
In the case of `CC(=O)NS(=O)(=O)c1ccc(Nc2ncc(Cl)c(NC3CC3)n2)cc1` [Example 24], the logP is recorded as 1.64**.

Take `CN(C)S(=O)(=O)c1cccc(Nc2ncc(Cl)c(NC3CC3)n2)c1` [Example 28]: the logP was 2.04**.

Regarding `NS(=O)(=O)c1cc(Nc2ncc(Cl)c(NC3CC3)n2)cc(C(F)(F)F)c1` [compound 17], the logP is given as 2.48**.

Regarding `FC(F)(F)c1cnc(Nc2ccccc2)nc1NC1CC1` [Example 93], the logP is 2.62**.

`O=[N+]([O-])c1ccc(Nc2ncc(Cl)c(NC3CC3)n2)cc1` [compound 438]: the logP is given as 2.9**.

For the compound `CC(=O)c1cccc(Nc2ncc(Cl)c(NC3CC3)n2)c1` [Example 5], the logP was 1.84**.

The same data set, now with this note: method **: HPLC reversed-phase C 18, temperature 43° C.; mobile phase 0.1% aqueous phosphoric acid and acetonitrile; linear gradient 10% to 95% acetonitrile.
As for `CC(=O)c1cccc(Nc2ncc(C(F)(F)F)c(NC3CC3)n2)c1` [compound 657], the logP is on record as 2.72**.

Staying with this data set, now noted: method **: HPLC, reversed-phase C 18, 43° C., mobile phase 0.1% aqueous phosphoric acid and acetonitrile, linear gradient from 10% to 95% acetonitrile.
Consider `COCCc1cccc(Nc2ncc(C(F)(F)F)c(NC3CC3)n2)c1` [compound 1039], for which the logP is recorded as 2.88**.

Still in this data set, the particulars now being: method *: HPLC reversed-phase C18, 40° C., 0.1% aqueous formic acid and acetonitrile, linear gradient 10% to 95% acetonitrile.
`CC(C)(C)OC(=O)NCc1ccc(Nc2ncc(Cl)c(NC3CC3)n2)cc1` [compound 90]: the logP is 2.15*.

With `FC(F)(F)Oc1ccc(Nc2ncc(Cl)c(NC3CC3)n2)cc1` [compound 375], the logP is 2.84*.

As to `COC(=S)Nc1ccc(Nc2ncc(Cl)c(NC3CC3)n2)cc1` [compound 365], the logP was 1.8*.

Consider `COc1ccc(Nc2ncc(Cl)c(NC3CC3)n2)cn1` [compound 92], for which the logP was 1.34*.

As for `FC(F)(F)c1nc2ccc(Nc3ncc(Cl)c(NC4CC4)n3)cc2[nH]1` [Example 68], the logP is given as 1.55*.

Regarding `C=CCNC(=O)c1ccc(Nc2ncc(Br)c(NCC3CC3)n2)cc1` [compound 425], the logP is reported as 1.9*.

As for `O=C(c1ccc(Nc2ncc(Cl)c(NC3CC3)n2)cc1)C(F)(F)F` [Example 73], the logP is listed as 3.62*.

As for `O=S(=O)(Cc1cccc(Nc2ncc(Cl)c(NC3CC3)n2)c1)NC1CC1` [compound 372], the logP is 1.59*.

As for `Oc1ccc(Nc2ncc(Cl)c(NC3CC3)n2)cc1` [Example 75], the logP is recorded as 1.12*.

The same data set, now with this note: method *: HPLC reversed-phase C 18, temperature 40° C.; mobile phase 0.1% aqueous formic acid and acetonitrile; linear gradient 10% to 95% acetonitrile.
Take `CSc1ccc(Nc2ncc(Cl)c(NCC3CC3)n2)cc1Cl` [compound 626]: the logP is given as 3.15*.

Consider `Cc1cnc(Nc2cccc(N3CCCC3=O)c2)nc1NC1CC1` [compound 567], for which the logP is given as 1.14*.

Consider `CC(C)(C)C(=O)Nc1ccc(Nc2ncc(C(F)(F)F)c(NC3CC3)n2)cc1` [compound 647], for which the logP was 2.46*.

Turning to `O=C(Nc1ccc(Nc2ncc(F)c(NC3CC3)n2)cc1)C(F)(F)F` [compound 583], the logP was 1.58*.

Turning to `O=C(NC1CC1)c1cccc(Nc2ncc(Br)c(NC3CC3)n2)c1` [compound 628], the logP was 1.49*.

For `COC(=O)Nc1ccc(Nc2ncc(F)c(NC3CC3)n2)cc1` [compound 594], the logP is reported as 1.28*.

For `CC(=O)c1cccc(Nc2ncc(C(F)(F)F)c(NC3CC3)n2)c1` [compound 657], the logP was 2.57*;.

With `CC(=O)c1ccc(Nc2ncc(F)c(NC3CC3)n2)cc1` [compound 590], the logP is recorded as 1.53*.

Still in this data set, the particulars now being: method *: HPLC, reversed-phase C 18, 40° C., mobile phase 0.1% aqueous formic acid and acetonitrile, linear gradient from 10% to 95% acetonitrile.
As to `CCSC(C)c1cccc(Nc2ncc(C(F)(F)F)c(NC3CC3)n2)c1` (centres unmarked) [compound 987], the logP is on record as 4.19*.

Turning to `COCCOc1cccc(Nc2ncc(C(F)(F)F)c(NC3CC3)n2)c1` [compound 1041], the logP is listed as 2.78*.

For the compound `Clc1cnc(Nc2ccc3ncsc3c2)nc1NC1CC1` [compound 995], the logP is 1.66*.

Still in this data set, the particulars now being: pH 2.3; read-out: logP (pH2.3).
On to `COc1cnc(Cl)nc1NC1CC1` [2-chloro-N-cyclopropyl-5-methoxypyrimidine-4-amine], for which the chromatographic logP was determined as 1.38.

In the case of `Clc1ncc(Cl)c(NCC2CC2)n1` [2,5-dichloro-N-(cyclopropylmethyl)pyrimidine-4-amine], the chromatographic logP was determined as 2.51.

The record behind these values is patent US20100081679A1, “DIAMINOPYRIMIDINES AS FUNGICIDES” (Bayer CropScience AG, priority 2007, published 2010).
